System: PMA-induced oedema in mouse ear
Assay: Acute contact dermatitis: inhibition of PMA/TPA-induced oedema in mouse ear
Format: in vivo
Details: 6 h, CD1 mice, 500 μg/ear topical in TPDS, 30 minutes before TPA 0.01% in acetone, ear weight difference after six hours vs TPA only
Protocol: The antiinflammatory activity has been evaluated as inhibition of PMA-induced oedema in mouse ear (Phorbol Myristate Acetate).
A) Acute contact dermatitis.
Groups of 5 CD1 mice (18-24 g) were used.
All the macrolide derivatives were dissolved in the Trans-phase Delivery System (TPDS) vehicle containing 10% benzyl alcohol, 40% acetone and 50% isopropanol.
15 microliters of the compounds (500 μg/ear), dissolved in TPDS, were applied topically onto the inner surface of an ear; after 30 minutes 12 microliters of a solution of acetate of tetradecanoyl-phorbol (TPA) with the concentration of 0.01% dissolved in acetone were applied onto the same area.
After six hours the animals were sacrified by inhalation of CO2.
The oedema level was calculated by detracting the weight of a defined portion of auricular ala of the not treated ear to the one of the treated controlateral ear. To determine the oedema remission level the weight difference of the groups treated with TPA+macrolides was compared with the ones of those treated with TPA only. The activity of the macrolides was measured by using the modified method of Zunic et coll. (1998): MDL (Lysyl) GDP, a non-toxil muramyl dipeptide derivative inhibits, cytokine production by activated macrophages and protects mice from phorbol ester-and oxazolone-induced inflammation (J. Invest Dermatol., 111(1), 77-82).
The data relating to erythromycin concern the treatment in single dose with 500 μg/ear.

CC[C@H]1OC(=O)[C@H](C)[C@@H](O)[C@H](C)[C@@H](O[C@@H]2O[C@H](C)C[C@H](N(C)C(=O)c3cccnc3)[C@H]2O)C(C)(O)C[C@@H](C)[C@H](O)[C@H](C)[C@@H](O)[C@]1(C)O (stereo partly drawn) [Compound 7]
inhibition in vivo at 500 µg/ear: 46.1%

CC[C@H]1OC(=O)[C@H](C)[C@@H](O)[C@H](C)[C@@H](O[C@@H]2O[C@H](C)C[C@H](N(C)C(=O)c3ccccc3)[C@H]2O)C(C)(O)C[C@@H](C)[C@H](O)[C@H](C)[C@@H](O)[C@]1(C)O (stereo partly drawn) [Compound 3]
inhibition in vivo at 500 µg/ear: 89.9%

CC[C@H]1OC(=O)[C@H](C)[C@@H](O)[C@H](C)[C@@H](O[C@@H]2O[C@H](C)C[C@H](N(C)C(=O)c3ccco3)[C@H]2O)C(C)(O)C[C@@H](C)[C@H](O)[C@H](C)[C@@H](O)[C@]1(C)O (stereo partly drawn) [Compound 4]
inhibition in vivo at 500 µg/ear: 64.4%

CC[C@H]1OC(=O)[C@H](C)[C@@H](O)[C@H](C)[C@@H](O[C@@H]2O[C@H](C)C[C@H](N(C)C(=O)c3cccnc3)[C@H]2O)C(C)(O)C[C@@H](C)/C(=N\O)[C@H](C)[C@@H](O)[C@]1(C)O (stereo partly drawn) [Compound 22]
inhibition in vivo at 500 µg/ear: 74.3%

CC[C@H]1OC(=O)[C@H](C)[C@@H](O)[C@H](C)[C@@H](O[C@@H]2O[C@H](C)C[C@H](N(C)C(=O)c3ccccc3)[C@H]2O)C(C)(OC)C[C@@H](C)C(=O)[C@H](C)[C@@H](O)[C@]1(C)O (stereo partly drawn) [Compound 15]
inhibition in vivo at 500 µg/ear: 74.3%

CC[C@H]1OC(=O)[C@H](C)[C@@H](O)[C@H](C)[C@@H](O[C@@H]2O[C@H](C)C[C@H](N(C)C(C)=O)[C@H]2O)C(C)(O)C[C@@H](C)/C(=N\OC(C)=O)[C@H](C)[C@@H](O)[C@]1(C)O (stereo partly drawn) [Compound 18]
inhibition in vivo at 500 µg/ear: 49%

CC[C@H]1OC(=O)[C@H](C)[C@@H](O)[C@H](C)[C@@H](O[C@@H]2O[C@H](C)C[C@H](N(C)C(=O)COCc3cc(OC)ccn3)[C@H]2O)C(C)(O)C[C@@H](C)C(O)[C@H](C)[C@@H](O)[C@]1(C)O (stereo partly drawn) [Compound 1]
inhibition in vivo at 500 µg/ear: 61.5%

CC[C@H]1OC(=O)[C@H](C)[C@@H](O)[C@H](C)[C@@H](O[C@@H]2O[C@H](C)C[C@H](N(C)S(=O)(=O)c3ccc(C)cc3)[C@H]2O)C(C)(O)C[C@@H](C)[C@H](O)[C@H](C)[C@@H](O)[C@]1(C)O (stereo partly drawn) [Compound 12]
inhibition in vivo at 500 µg/ear: 72.2%

CC[C@H]1OC(=O)[C@H](C)[C@@H](O[C@H]2C[C@@](C)(OC)[C@@H](O)[C@H](C)O2)[C@H](C)[C@@H](O[C@@H]2O[C@H](C)C[C@H](N(C)C)[C@H]2O)[C@](C)(O)C[C@@H](C)C(=O)[C@H](C)[C@@H](O)[C@]1(C)O [Erythromycin, reference compound]
inhibition in vivo at 500 µg/ear: 42.5%

CC[C@H]1OC(=O)[C@H](C)[C@@H](O)[C@H](C)[C@@H](O[C@@H]2O[C@H](C)C[C@H](N(C)C(=O)c3ccc(OC)cc3)[C@H]2O)C(C)(O)C[C@@H](C)/C(=N\O)[C@H](C)[C@@H](O)[C@]1(C)O (stereo partly drawn) [Compound 20]
inhibition in vivo at 500 µg/ear: 83.2%

CC[C@H]1OC(=O)[C@H](C)[C@@H](O)[C@H](C)[C@@H](O[C@@H]2O[C@H](C)C[C@H](N(C)C(=O)c3cccs3)[C@@H]2O)[C@](C)(O)C[C@H](C)/C(=N\OC(=O)c2cccs2)[C@@H](C)[C@H](O)[C@]1(C)O [Compound 24]
inhibition in vivo at 500 µg/ear: 41.3%

CC[C@H]1OC(=O)[C@H](C)[C@@H](O)[C@H](C)[C@@H](O[C@@H]2O[C@H](C)C[C@H](N(C)C(=O)Cc3ccccc3)[C@H]2O)C(C)(O)C[C@@H](C)[C@H](O)[C@H](C)[C@@H](O)[C@]1(C)O (stereo partly drawn) [Compound 2]
inhibition in vivo at 500 µg/ear: 88.1%

CC[C@H]1OC(=O)[C@H](C)[C@@H](O)[C@H](C)[C@@H](O[C@@H]2O[C@H](C)C[C@H](N(C)C(=O)C(C)(C)C)[C@H]2O)C(C)(O)C[C@@H](C)/C(=N\OC(=O)C(C)(C)C)[C@H](C)[C@@H](O)[C@]1(C)O (stereo partly drawn) [Compound 17]
inhibition in vivo at 500 µg/ear: 51.2%

CC[C@H]1OC(=O)[C@H](C)[C@@H](O[C@H]2C[C@@](C)(OC)[C@@H](O)[C@H](C)O2)[C@H](C)[C@@H](O[C@@H]2O[C@H](C)C[C@H](N(C)C)[C@H]2O)[C@](C)(O)C[C@@H](C)CN(C)[C@H](C)[C@@H](O)[C@]1(C)O [Azithromycin, reference compound]
inhibition in vivo at 500 µg/ear: 40%

CCNC(=O)N(C)[C@H]1C[C@@H](C)O[C@@H](O[C@@H]2[C@@H](C)[C@H](O)[C@@H](C)C(=O)O[C@H](CC)[C@@](C)(O)[C@H](O)[C@@H](C)[C@@H](O)[C@H](C)CC2(C)O)[C@@H]1O (stereo partly drawn) [Compound 13]
inhibition in vivo at 500 µg/ear: 80.3%

CC[C@H]1OC(=O)[C@H](C)[C@@H](O)[C@H](C)[C@@H](O[C@@H]2O[C@H](C)C[C@H](N(C)C(=O)Cc3cccs3)[C@H]2O)C(C)(O)C[C@@H](C)/C(=N\O)[C@H](C)[C@@H](O)[C@]1(C)O (stereo partly drawn) [Compound 25]
inhibition in vivo at 500 µg/ear: 79.3%

CC[C@H]1OC(=O)[C@H](C)[C@@H](O)[C@H](C)[C@@H](O[C@@H]2O[C@H](C)C[C@H](N(C)C(=O)c3ccc(C)cc3)[C@H]2O)C(C)(O)C[C@@H](C)[C@H](O)[C@H](C)[C@@H](O)[C@]1(C)O (stereo partly drawn) [Compound 6]
inhibition in vivo at 500 µg/ear: 77.8%

CC[C@H]1OC(=O)[C@H](C)[C@@H](O)[C@H](C)[C@@H](O[C@@H]2O[C@H](C)C[C@H](N(C)C(=O)C(C)(C)C)[C@H]2O)C(C)(O)C[C@@H](C)/C(=N\O)[C@H](C)[C@@H](O)[C@]1(C)O (stereo partly drawn) [Compound 26]
inhibition in vivo at 500 µg/ear: 68.6%

CC[C@H]1OC(=O)[C@H](C)[C@@H](O)[C@H](C)[C@@H](O[C@@H]2O[C@H](C)C[C@H](N(C)C(=O)C3CCCCC3)[C@H]2O)C(C)(O)C[C@@H](C)[C@H](O)[C@H](C)[C@@H](O)[C@]1(C)O (stereo partly drawn) [Compound 10]
inhibition in vivo at 500 µg/ear: 89.2%

CC[C@H]1OC(=O)[C@H](C)[C@@H](O)[C@H](C)[C@@H](O[C@@H]2O[C@H](C)C[C@H](N(C)C(=O)Cc3cccs3)[C@H]2O)C(C)(O)C[C@@H](C)[C@H](O)[C@H](C)[C@@H](O)[C@]1(C)O (stereo partly drawn) [Compound 5]
inhibition in vivo at 500 µg/ear: 53.7%

CC[C@H]1OC(=O)[C@H](C)[C@@H](O)[C@H](C)[C@@H](O[C@@H]2O[C@H](C)C[C@H](N(C)S(C)(=O)=O)[C@H]2O)C(C)(O)C[C@@H](C)[C@H](O)[C@H](C)[C@@H](O)[C@]1(C)O (stereo partly drawn) [Compound 11]
inhibition in vivo at 500 µg/ear: 55.3%

CCCCCCCC(=O)N(C)[C@H]1C[C@@H](C)O[C@@H](O[C@@H]2[C@@H](C)[C@H](O)[C@@H](C)C(=O)O[C@H](CC)[C@@](C)(O)[C@H](O)[C@@H](C)[C@@H](O)[C@H](C)CC2(C)O)[C@@H]1O (stereo partly drawn) [Compound 9]
inhibition in vivo at 500 µg/ear: 74.2%

CC[C@H]1OC(=O)[C@H](C)[C@@H](O)[C@H](C)[C@@H](O[C@@H]2O[C@H](C)C[C@H](N(C)C(=O)c3cccs3)[C@H]2O)C(C)(O)C[C@@H](C)/C(=N\O)[C@H](C)[C@@H](O)[C@]1(C)O (stereo partly drawn) [Compound 23]
inhibition in vivo at 500 µg/ear: 86.8%

CC[C@H]1OC(=O)[C@H](C)[C@@H](O)[C@H](C)[C@@H](O[C@@H]2O[C@H](C)C[C@H](N(C)C(=O)COC)[C@H]2O)C(C)(O)C[C@@H](C)/C(=N\O)[C@H](C)[C@@H](O)[C@]1(C)O (stereo partly drawn) [Compound 19]
inhibition in vivo at 500 µg/ear: 86.1%

CC[C@H]1OC(=O)[C@H](C)[C@@H](O)[C@H](C)[C@@H](O[C@@H]2O[C@H](C)C[C@H](N(C)C(=O)c3ccc(OC)cc3)[C@H]2O)C(C)(O)C[C@@H](C)/C(=N\OC(=O)c2ccc(OC)cc2)[C@H](C)[C@@H](O)[C@]1(C)O (stereo partly drawn) [Compound 21]
inhibition in vivo at 500 µg/ear: 53.3%

CC[C@H]1OC(=O)[C@H](C)[C@@H](O)[C@H](C)[C@@H](O[C@@H]2O[C@H](C)C[C@H](N(C)C(=O)CSc3ccccc3)[C@H]2O)C(C)(O)C[C@@H](C)[C@H](O)[C@H](C)[C@@H](O)[C@]1(C)O (stereo partly drawn) [Compound 8]
inhibition in vivo at 500 µg/ear: 57.6%

CC[C@H]1OC(=O)[C@H](C)[C@@H](O)[C@H](C)[C@@H](O[C@@H]2O[C@H](C)C[C@H](N(C)C(=O)c3ccc(F)cc3)[C@H]2O)C(C)(OC)C[C@@H](C)C(=O)[C@H](C)[C@@H](O)[C@]1(C)O (stereo partly drawn) [Compound 16]
inhibition in vivo at 500 µg/ear: 81.1%

CC[C@H]1OC(=O)[C@H](C)[C@@H](O)[C@H](C)[C@@H](O[C@@H]2O[C@H](C)C[C@H](N(C)C(=O)c3cccnc3Cl)[C@H]2O)C(C)(O)C[C@@H](C)/C(=N\O)[C@H](C)[C@@H](O)[C@]1(C)O (stereo partly drawn) [Compound 28]
inhibition in vivo at 500 µg/ear: 81.7%

CC[C@H]1OC(=O)[C@H](C)[C@@H](O)[C@H](C)[C@@H](O[C@@H]2O[C@H](C)C[C@H](N(C)C(=O)Cc3cccs3)[C@H]2O)C(C)(O)C[C@@H](C)/C(=N\OC(=O)Cc2cccs2)[C@H](C)[C@@H](O)[C@]1(C)O (stereo partly drawn) [Compound 27]
inhibition in vivo at 500 µg/ear: 61.4%

CC[C@H]1OC(=O)[C@H](C)[C@@H](O)[C@H](C)[C@@H](O[C@@H]2O[C@H](C)C[C@H](N(C)C(=O)Nc3ccccc3)[C@H]2O)C(C)(O)C[C@@H](C)[C@H](O)[C@H](C)[C@@H](O)[C@]1(C)O (stereo partly drawn) [Compound 14]
inhibition in vivo at 500 µg/ear: 89.9%
